{"source": "patent US10711094B2", "about": "“Conjugated polymer nanoparticles, methods of using, and methods of making” (KING ABDULLAH UNIVERSITY OF SCIENCE AND TECHNOLOGY, priority 2015, dated 2020)", "origin": "cited, not measured here", "settings": "in ethanol"}
{"smiles": "O=C(O)c1ccccc1C1=c2cc3c4c(c2Oc2c1cc1c5c2CCCN5CCC1)CCC[N+]=4CCC3.[Cl-]", "note": "[Rhodamine 101]", "values": [{"measurement": "fluorescence quantum yield (Φfl) of reference dye", "result": 96, "unit": "%"}]}
